Results reported in US12618062B2, “Display of molecules on silently genetically encoded nanoscale carriers for determining synergistic molecular interactions” (The Governors of the University of Alberta, priority 2017, dated 2026).

Molecular target: T1, Ulex Europaeus Agglutinin (UEA lectin) (Ulex europaeus, UniProt P22972)
T1 sequence (P22972 1-243): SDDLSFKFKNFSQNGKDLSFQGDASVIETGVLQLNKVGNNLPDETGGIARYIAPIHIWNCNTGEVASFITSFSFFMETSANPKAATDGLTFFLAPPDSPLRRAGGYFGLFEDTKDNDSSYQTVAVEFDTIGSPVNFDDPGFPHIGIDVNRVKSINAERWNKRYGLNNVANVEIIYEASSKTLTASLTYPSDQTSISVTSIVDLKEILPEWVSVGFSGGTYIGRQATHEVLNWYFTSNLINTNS
Assay: Pull-down of liquid glycan array and deep sequencing
Assay type: binding
Conditions: array of 74 glycans; FIG. 6H
Excerpt: The washing step was repeated three times.

In the case of “Fucα1-2Galb1-4[Fucα1-3]GlcNAcb-Phage [Te118]”, the “Enrichment in pull down by plant lectin UGA” value is reported as “enrichment not detected”.

In the case of “GalNAcα1-3 [Fucα1-2]Galβ1-4G1cNAcβ-Phage [Te222]”, the “Enrichment in pull down by plant lectin UGA” value is reported as “enrichment not detected”.
